For one series, the system named is T-45 cells. Type of series: cell-based, human. The following applies: for Estimated Cell Growth Virus-uninfected Day 7: no-drug control 1.2x10^6; for cytotoxicity: non-infected cells, over the concentration range used (Fig. 3, Table 1), result in words. How it is done:
FIG. 1 is a schematic outline of the test procedure used to assess the cytotoxic effect of test compounds on T-cells either infected or non-infected with HIV and in parallel the HIV inhibitory activity of the test compounds. TCID is the tissue culture infectious dose. Cells were cultured in RPMI-1640 medium with 10% fetal calf serum containing 100 units/ml penicillin G and 100 µg/ml streptomycin.
(§1) The assay was run in 96 well plastic microtiter plates in which 0.2 ml of culture medium containing 10^4 T-cells are seeded into each well. RPMI-1640 supplemented with 10% fetal calf serum was used as the culture medium. In each assay, 6 wells are used. Three (1-3) are infected with 10^4 TCID/well of HIV-1 or HIV-2 and to the other three (4-6) culture medium alone is added. Medium is changed at the same intervals for each test compound. The detailed assay procedure is illustrated in Figures 1 and 2.
(§2) The efficacy of the test compounds used in this example was assessed as follows: 0.2 ml of culture medium containing 10^4 T-45 cells were transferred into each well of a 96-well flat-bottomed tissue-culture plastic plate and the cells were allowed to settle at 37°C (see Figure 1). After 4 hours the media were aspirated and replaced with media which contained the test compound. Following overnight incubation the media was aspirated and 10^4 TCID of virus (HIV-1 or HIV-2) was added to each well. Incubation was continued at 37°C in 5% CO2 for 1 hour. Thereafter, growth media containing the various compounds were added and incubation at 37°C was continued. On the fourth day the cell suspensions from each well were split and seeded into two new wells and 0.2 ml of fresh media with compounds was added. This was repeated on the seventh day. Cells were examined by microscopy during days 1 to 10 for the presence of syncytia, growth rate and the appearance of the cytopathic effect (CPE) (giant cells, pycnotic nuclei, loss of refractility). CPE (100%) was defined as no round, refractile, uniform cells remaining; only giant, ballooned pyknotic cells were present. The viability of HIV infected cultures was determined by a rough count/estimate of cells which underwent CPE in relation to round refractile uniform (normal) cells in a given culture.
Quantitative data on the effect of the various compounds on the non-infected cells (cytotoxicity) was obtained by comparison of their growth rate to control cells not exposed to drugs (Table 1). […] In addition, the MOLT-4 cell line was also used.

Series [1] has as its system HIV. The following applies: result in words; see Fleet et al., FEBS Lett., In Press, 1988; cited from earlier work.
Series [2] relates to HIV. The series is described as follows: TCID titre of culture supernatants of T-45 cells infected with HIV, Fig. 4. To be noted: for reduction of TCID titre of culture supernatants: T-45 cells infected with HIV, after 10 days in culture, result in words. It is filed as cell-based. How it is done:
FIG. 4 is a graphical representation in which the viral titer (determined as TCID) is plotted against the concentration in mg/ml of various of the test compounds (drugs) of FIG. 3 in panels (a) and (b).
(§3) Cell free suspensions of the HIV were prepared from infected cultures. The concentration of infectious particles was estimated on end-point titration assay using serial ten-fold dilutions. The approximate number of infectious particles in each preparation was determined by the highest dilution which contains infectious HIV as determined by synctial formation, cytopathicity [Leonard et al., Proc. Natl. Acad. Sci. USA 85, 3570-3574 (1988); Barre-Sinoussi et al., Science 220, 868-870 (1983)] and HIV antigen [Karpas et al., Lancet 1, 695-697 (1985)] synthesis after 10 days of culture with 10^4 T-cells. This represents the concentration of infectious particles, herein defined as the tissue culture infectious dose (TCID).
as §2, with “culture. Cells in wells which were incubated with compounds which appeared to inhibit or reduce HIV replication and in which there was marked cell proliferation were either transferred to larger wells (of a 24-well plate) or divided in order to maintain an approximate constant cell density to promote continuous cell division.” for “culture.”
Quantitative data on the effect of the various compounds on the non-infected cells (cytotoxicity) was obtained by comparison of their growth rate to control cells not exposed to drugs (Table 1). Fig. 4 and Table 2 show the relation between the TCID titre of culture supernatants of T-45 cells infected with HIV after 10 days in culture and the concentration of drug. […] The inability of any of these drugs alone to totally reduce the TCID may be due to heterogeneity of virus production or spread. […] In addition, the MOLT-4 cell line was also used.

A further series deals with HIV-1. Nature of the series: Virus titer (TCID) of HIV-1 infected T-cell cultures grown with test compound. It is filed as cell-based. To be noted: control 10^6; for HIV-1 (TCID): Table 2, 0.10 mg/ml, 10^4 T-45 or MOLT-4 cells (identical results), 10^4 TCID inoculum, after day 10; for VIRUS TITER HIV-1: Table 3, Example 2, 0.1 mg/ml, T-45 and MOLT-4 cells, 10^4 TCID on 10^4 cells. How it is done:
as §3, §1
as §2, with “culture. Cells in wells which were incubated with compounds which appeared to inhibit or reduce HIV replication and in which there was marked cell proliferation were either transferred to larger wells (of a 24-well plate) or divided in order to maintain an approximate constant cell density to promote continuous cell division.” for “culture.”
(§4) That is, HIV-1 was first passaged in T-45 cells; likewise, HIV-1 was first passaged in MOLT-4 cells. The same passaging was done with HIV-2. The test compounds were used at a concentration of 0.1 mg/ml. 10^4 TCID of HIV-1 and separately of HIV-2 were used to infect 10^4 cells. Upon completion of the test, the virus titers were as follows: TABLE 3

Another series concerns HIV-2. Nature of the series: Virus titer (TCID) of HIV-2 infected T-cell cultures grown with test compound. It is filed as cell-based. The following applies: control 10^6; for HIV-2 (TCID): Table 2, 0.10 mg/ml, 10^4 T-45 or MOLT-4 cells (identical results), 10^4 TCID inoculum, after day 10; for VIRUS TITER HIV-2: Table 3, Example 2, 0.1 mg/ml, T-45 and MOLT-4 cells, 10^4 TCID on 10^4 cells. How it is done: as §3, §1
as §2, with “culture. Cells in wells which were incubated with compounds which appeared to inhibit or reduce HIV replication and in which there was marked cell proliferation were either transferred to larger wells (of a 24-well plate) or divided in order to maintain an approximate constant cell density to promote continuous cell division.” for “culture.”
as §4

In series [3] the test system is HIV. The series is described as follows: Inhibition of HIV-associated cytopathic effect (CPE) in T-45 cells. The following applies: HIV infected T-45 cells, various concentrations (Fig. 3); result in words. It is filed as cell-based. How it is done: FIG. 3 is a graphical representation in which the inhibition of HIV associated CPE (―% CPE) reduction) and test compound-associated cytotoxicity (---% cell death) is plotted against the media concentration in mg/ml of several test compounds (drugs). The cell viability data was determined for non-HIV infected cells. The test compounds were the N-methyl-, N-ethyl-, and N-butyl derivatives of deoxynojirimycin (DNJ), castanospermine (Cast), N-(5-carboxymethyl-1-pentyl)-1,5-imino-L-fucitol (LFT) and 1,4-dideoxy-1,4-imino-L-arabinitol (LAB).
After a suitable period of incubation, the cultures are scored for the presence of so-called syncytial cells (giant cells). Typical examples of such a test for the evaluation of inhibitors of HIV have been disclosed by Fung et al., Bio/Technology 5, 940-946 (1987); Tyms et al., Lancet, October 31, 1987, pp. 1025-1026; Gruters et al., Nature 330, 74-77 (1987); and Walker et al., Proc. Natl. Acad. Sci. USA 84, 8120-8124 (1987).
as §2, with “culture. Cells in wells which were incubated with compounds which appeared to inhibit or reduce HIV replication and in which there was marked cell proliferation were either transferred to larger wells (of a 24-well plate) or divided in order to maintain an approximate constant cell density to promote continuous cell division.” for “culture.”
In general terms: Cytopathic effects are the visible damage that an infection or toxin causes in cultured cells.

The test system of series [4] is HIV. The following applies: Gruters et al., Nature 330, 74-77 (1987); cited from earlier work.
Series [5] relates to B16-F10 murine melanoma cells. Nature of the series: Incorporation of radiolabeled galactose, mannose, glucose and thymidine into cells. It is filed as cell-based. The following applies: result in words.

Where two headings read alike, the source gives them in different places.

For `OC[C@@H]1NC[C@H](O)[C@H]1O` [LAB, 1,4-dideoxy-1,4-imino-L-arabinitol], the “Estimated Cell Growth Virus-uninfected Day 7” value is 1.5x10^6 with T-45 cells (Dosage 0.10 mg/ml), 1.5x10^6 with T-45 cells (Dosage 0.25 mg/ml) and 1.0x10^6 with T-45 cells (Dosage 0.50 mg/ml). For the same compound, the cytotoxicity result with T-45 cells is reported as “showed no cytotoxicity over the concentration range used”. In the series with HIV [1], the “HIV inhibitory activity / effect on CPE” value was “strong HIV inhibitory activity”. Also, in the series on HIV [2], the “reduction of TCID titre of culture supernatants” value is listed as “only able to reduce the TCID partially”.

`O[C@@H]1[C@@H](O)[C@@H](O)CN2CC[C@H](O)[C@@H]12` [L-1,6-diepicastanospermine]: the “HIV inhibitory activity / effect on CPE” value in the series with HIV [1] was “neither the epimer L-1,6-diepicastanospermine nor the stereoisomer of castanospermine, L-6-epicastanospermine, were found to be inhibitory”.

As for `OC[C@@H]1[C@@H](O)[C@H](O)[C@@H](O)CN1Cc1ccccc1` [N-benzyl derivative], the “HIV inhibitory activity / effect on CPE” value with HIV [1] is given as “Neither the azofuranose analog of glucose nor the N-benzyl derivative were found to have an effect on CPE”.

For `CCN1C[C@H](O)[C@@H](O)[C@H](O)[C@H]1CO` [EtDNJ, N-ethyl-deoxynojirimycin], the “Estimated Cell Growth Virus-uninfected Day 7” value in the series on T-45 cells (Dosage 0.01 mg/ml) is 1.2x10^6. Besides, the “Estimated Cell Growth Virus-uninfected Day 7” value in the series with T-45 cells (Dosage 0.05 mg/ml) was 1.2x10^6. In addition, the “Estimated Cell Growth Virus-uninfected Day 7” value in the series on T-45 cells (Dosage 0.10 mg/ml) was 1.3x10^6. The cytotoxicity entry with T-45 cells is “cytotoxic”. Further, in the series with HIV [2], the “reduction of TCID titre of culture supernatants” value was “reduced the TCID only partially”. For the same compound, in the series with HIV [2] (at non-cytotoxic concentrations), the “reduction of the virus titer / yield of infectious HIV” value is “two to four log-order of reduction”. In addition, in the series with HIV-1, the “HIV-1 (TCID)” value is reported as 10^3 TCID and the “VIRUS TITER HIV-1” value was 10^3. For the same compound, in the series on HIV-2, the “HIV-2 (TCID)” value is 10^3 TCID and the “VIRUS TITER HIV-2” value was 10^3. For the same compound, in the series on HIV [3], the “effect on CPE formation” value is on record as “bell shaped dose-dependence”.

As for `OC[C@H]1NC[C@@H](O)[C@@H]1O` [D-enantiomer of 1,4-dideoxy-1,4-imino-arabinitol, 1,4-dideoxy-1,4-imino-arabinitol], the “HIV inhibitory activity / effect on CPE” value with HIV [1] was “very little effect on HIV replication”.

Regarding `OC[C@H]1NC[C@@H](O)[C@@H](O)[C@@H]1O` [DMJ, deoxymannojirimycin], the “effect upon HIV infectivity” value with HIV [4] is reported as “absence of effect”.

As to “N-(5-carboxymethyl-1-pentyl)-1,5-imino-L-fucitol [LFT]”, in the series on HIV [2], the “reduction of TCID titre of culture supernatants” value is “only able to reduce the TCID partially”.

Consider `O[C@@H]1[C@@H](O)[C@@H](O)CN2CC[C@@H](O)[C@@H]12` [L-6-epicastanospermine], for which the “HIV inhibitory activity / effect on CPE” value in the series on HIV [1] is on record as “neither the epimer L-1,6-diepicastanospermine nor the stereoisomer of castanospermine, L-6-epicastanospermine, were found to be inhibitory”.

Take `OC[C@H]1NCC[C@@H](O)[C@@H]1O` [fagomine]: in the series on HIV [1], the “HIV inhibitory activity / effect on CPE” value was “no HIV inhibition was observed”.

For the compound `OC[C@H]1NC[C@H](O)[C@@H](O)[C@@H]1O` [DNJ, 1,5-dideoxy-1,5-imino-D-glucitol], the “Estimated Cell Growth Virus-uninfected Day 7” value in the series on T-45 cells (Dosage 0.25 mg/ml) is listed as 1.4x10^6. Moreover, the “Estimated Cell Growth Virus-uninfected Day 7” value in the series with T-45 cells (Dosage 0.50 mg/ml) is reported as 1.4x10^6. Further, in the series with HIV [2], the “reduction of TCID titre of culture supernatants” value was “reduced the TCID only partially”. Also, the “effect upon HIV infectivity” value in the series on HIV [4] was “positive effect”. In the series on HIV-1, the “HIV-1 (TCID)” value was 10^5 TCID and the “VIRUS TITER HIV-1” value is given as 10^5. In addition, in the series on HIV-2, the “HIV-2 (TCID)” value is 10^5 TCID and the “VIRUS TITER HIV-2” value is listed as 10^5. The “galactose incorporation into the cells” value in series [5] (radiolabeled galactose) is “substantially inhibited galactose incorporation into the cells at 1.0 mM or less”. Besides, the glucose utilization/inhibition entry in series [5] (radiolabeled glucose) was “inhibited in a normal dose-response manner”. In series [5] (radiolabeled mannose), the mannose utilization result is listed as “inhibited mannose utilization”. Further, the “^3H-Thymidine uptake into the cells” value in series [5] is on record as “inhibited incorporation at 2.0 mM”.

Values taken from patent EP0324328B1, “Use of the N-n-butyl derivative of desoxynojirimycin in the manufacture of a medicament inhibiting HIV-Virus” (priority 1987, dated 1989).
